Laboratory results taken from PubChem BioAssay AID2060611 (Molecular Pharmacology Branch, DTP, NCI, 2025).
“And” between values parts separate entries of the source, which are not always exact repeats. Identical values can stand only once.

Test system: 628569-122-R-J1-PDC complex spheroid viability
Experiment: Anticancer human tumor 628569-122-R-J1-PDC patient-derived head and neck squamous carcinoma cell line growth inhibition [CLK]
Conditions: for viability, T/C: stronger effect = lower value
In short: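 Patient-derived tumor cells grown as complex spheroids with HUVEC endothelial cells and mesenchymal stem cells, treated with drug combinations. Concentrations descend in half-log steps from near clinical Cmax, or from 10 microM if Cmax unknown.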

[1] = curve of first compound, second compound 0.0316 µM
[2] = curve of first compound, second compound 0.1 µM
[3] = curve of first compound, second compound 0.316 µM
[4] = curve of first compound, second compound 1 µM
[5] = curve of first compound, second compound 3.16 µM
[6] = curve of first compound, second compound 10 µM
[7] = second compound 0.0316 µM, first compound 0.0316 µM
[8] = second compound 0.0316 µM, first compound 0.1 µM
[9] = second compound 0.0316 µM, first compound 0.316 µM
[10] = second compound 0.0316 µM, first compound 1 µM
[11] = second compound 0.0316 µM, first compound 3.16 µM
[12] = second compound 0.0316 µM, first compound 10 µM
[13] = second compound 0.1 µM, first compound 0.0316 µM
[14] = second compound 0.1 µM, first compound 0.1 µM
[15] = second compound 0.1 µM, first compound 0.316 µM
[16] = second compound 0.1 µM, first compound 1 µM
[17] = second compound 0.1 µM, first compound 3.16 µM
[18] = second compound 0.1 µM, first compound 10 µM
[19] = second compound 0.316 µM, first compound 0.0316 µM
[20] = second compound 0.316 µM, first compound 0.1 µM
[21] = second compound 0.316 µM, first compound 0.316 µM
[22] = second compound 0.316 µM, first compound 1 µM
[23] = second compound 0.316 µM, first compound 3.16 µM
[24] = second compound 0.316 µM, first compound 10 µM
[25] = second compound 1 µM, first compound 0.0316 µM
[26] = second compound 1 µM, first compound 0.1 µM
[27] = second compound 1 µM, first compound 0.316 µM
[28] = second compound 1 µM, first compound 1 µM
[29] = second compound 1 µM, first compound 3.16 µM
[30] = second compound 1 µM, first compound 10 µM
[31] = second compound 3.16 µM, first compound 0.0316 µM
[32] = second compound 3.16 µM, first compound 0.1 µM
[33] = second compound 3.16 µM, first compound 0.316 µM
[34] = second compound 3.16 µM, first compound 1 µM
[35] = second compound 3.16 µM, first compound 3.16 µM
[36] = second compound 3.16 µM, first compound 10 µM
[37] = second compound 10 µM, first compound 0.0316 µM
[38] = second compound 10 µM, first compound 0.1 µM
[39] = second compound 10 µM, first compound 0.316 µM
[40] = second compound 10 µM, first compound 1 µM
[41] = second compound 10 µM, first compound 3.16 µM
[42] = second compound 10 µM, first compound 10 µM
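Also: spheroids exposed to agents for seven days before readout.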
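For viability, T/C in this document: 100% = DMSO vehicle control viability.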

Question: For COc1c(OCCCN2CCOCC2)ccc2c3n(c(=NC(=O)c4cnc(N)nc4)nc12)CCN3, which viability, T/C (compound 0.00316 µM) is on record?
Answer: Its viability, T/C is 79.2% and 77.8%.

Question: What about the viability, T/C (compound 0.01 µM) of the same compound?
Answer: Its viability, T/C is 61.3% and 39.7%.

Question: And the viability, T/C (compound 0.0316 µM)?
Answer: Its viability, T/C is 33.9% and 37.7%.

Question: What about the viability, T/C (compound 0.1 µM) of the same compound?
Answer: The viability, T/C was 21.9% and 23.6%.

Question: What about the viability, T/C (compound 0.316 µM) of the same compound?
Answer: The viability, T/C was 15.5% and 12.8%.

Question: What about the viability, T/C (compound 1 µM) of the same compound?
Answer: The viability, T/C was 4.99% and 10.7%.

Question: What about the IC50 (curve of compound) of the same compound?
Answer: Its IC50 is 16 nM and 9.1 nM.

Question: What does the source list for C=CC(=O)N1CCN(c2nc(=O)n(-c3c(C)ccnc3C(C)C)c3nc(-c4c(O)cccc4F)c(F)cc23)C(C)C1 (stereo not drawn) + CN1CCN(c2cc(C(=O)Nc3cc4cc(-c5cnn(C)c5)ccc4cn3)ccn2)CC1?
Answer: IC50 [1]: > 10000 nM; IC50 [2]: > 10000 nM; IC50 [3]: < 31.6 nM; IC50 [4]: < 31.6 nM; IC50 [5]: < 31.6 nM; IC50 [6]: < 31.6 nM; viability, T/C [7]: 104%; viability, T/C [8]: 89.4%; viability, T/C [9]: 110%; viability, T/C [10]: 113%; viability, T/C [11]: 132%; viability, T/C [12]: 140%; viability, T/C [13]: 51.7%; viability, T/C [14]: 65.7%; viability, T/C [15]: 77.1%; viability, T/C [16]: 81.3%; viability, T/C [17]: 86.2%; viability, T/C [18]: 71.4%; viability, T/C [19]: 32.5%; viability, T/C [20]: 38.2%; viability, T/C [21]: 41.5%; viability, T/C [22]: 37.5%; viability, T/C [23]: 51%; viability, T/C [24]: 31.4%; viability, T/C [25]: 6.64%; viability, T/C [26]: 5.37%; viability, T/C [27]: 5.91%; viability, T/C [28]: 5.6%; viability, T/C [29]: 8.96%; viability, T/C [30]: 6.5%; viability, T/C [31]: 9.3%; viability, T/C [32]: 9.76%; viability, T/C [33]: 6.13%; viability, T/C [34]: 4.78%; viability, T/C [35]: 5.85%; viability, T/C [36]: 4.66%; viability, T/C [37]: 2.59%; viability, T/C [38]: 1.73%; viability, T/C [39]: 2.2%; viability, T/C [40]: 1.51%; viability, T/C [41]: 4.91%; viability, T/C [42]: 3.2%

Question: Which results are given for CC(Nc1ccc2c(c1)OCCn1cc(N3C(=O)OCC3C(F)F)nc1-2)C(N)=O (stereo not drawn) + CN1CCN(c2cc(C(=O)Nc3cc4cc(-c5cnn(C)c5)ccc4cn3)ccn2)CC1?
Answer: IC50 [1]: 432 nM; IC50 [2]: 32 nM; IC50 [3]: < 31.6 nM; IC50 [4]: < 31.6 nM; IC50 [5]: < 31.6 nM; IC50 [6]: < 31.6 nM; viability, T/C [7]: 76.2%; viability, T/C [8]: 71.2%; viability, T/C [9]: 50.8%; viability, T/C [10]: 41%; viability, T/C [11]: 28.9%; viability, T/C [12]: 23.2%; viability, T/C [13]: 51.8%; viability, T/C [14]: 44%; viability, T/C [15]: 36.4%; viability, T/C [16]: 41.6%; viability, T/C [17]: 23.2%; viability, T/C [18]: 17.8%; viability, T/C [19]: 26.9%; viability, T/C [20]: 20.5%; viability, T/C [21]: 13.6%; viability, T/C [22]: 13.5%; viability, T/C [23]: 8.04%; viability, T/C [24]: 5.9%; viability, T/C [25]: 7.59%; viability, T/C [26]: 8.7%; viability, T/C [27]: 6.98%; viability, T/C [28]: 8.35%; viability, T/C [29]: 6.35%; viability, T/C [30]: 5.58%; viability, T/C [31]: 7.77%; viability, T/C [32]: 7.38%; viability, T/C [33]: 6.16%; viability, T/C [34]: 6.78%; viability, T/C [35]: 7.18%; viability, T/C [36]: 6.1%; viability, T/C [37]: 6.06%; viability, T/C [38]: 4.09%; viability, T/C [39]: 2.84%; viability, T/C [40]: 6.87%; viability, T/C [41]: 3.27%; viability, T/C [42]: 2.51%

Question: With CCCS(=O)(=O)Nc1ccc(F)c(C(=O)c2c[nH]c3ncc(-c4ccc(Cl)cc4)cc23)c1F + CN1CCN(c2cc(C(=O)Nc3cc4cc(-c5cnn(C)c5)ccc4cn3)ccn2)CC1 as the compound, how does the IC50 [1] read?
Answer: The IC50 was greater than 10000 nM.

Question: And the IC50 [2]?
Answer: Its IC50 is greater than 10000 nM.

Question: And the IC50 [3]?
Answer: The IC50 was less than 31.6 nM.

Question: What about the IC50 [4] of the same compound?
Answer: The IC50 was less than 31.6 nM.

Question: And the IC50 [5]?
Answer: Its IC50 is less than 31.6 nM.

Question: What about the IC50 [6] of the same compound?
Answer: The IC50 was less than 31.6 nM.

Question: And the viability, T/C [7]?
Answer: The viability, T/C was 121%.

Question: And the viability, T/C [8]?
Answer: The viability, T/C was 94.7%.

Question: And the viability, T/C [9]?
Answer: The viability, T/C was 87.2%.

Question: And the viability, T/C [10]?
Answer: Its viability, T/C is 87.9%.

Question: And the viability, T/C [11]?
Answer: The viability, T/C was 91.7%.

Question: What about the viability, T/C [12] of the same compound?
Answer: Its viability, T/C is 104%.

Question: And the viability, T/C [13]?
Answer: Its viability, T/C is 70.8%.

Question: And the viability, T/C [14]?
Answer: Its viability, T/C is 72.7%.

Question: What about the viability, T/C [15] of the same compound?
Answer: The viability, T/C was 68.9%.

Question: And the viability, T/C [16]?
Answer: The viability, T/C was 80.9%.

Question: What about the viability, T/C [17] of the same compound?
Answer: Its viability, T/C is 86.6%.

Question: What about the viability, T/C [18] of the same compound?
Answer: Its viability, T/C is 93.5%.

Question: What about the viability, T/C [19] of the same compound?
Answer: Its viability, T/C is 37.9%.

Question: And the viability, T/C [20]?
Answer: Its viability, T/C is 36.1%.

Question: What about the viability, T/C [21] of the same compound?
Answer: Its viability, T/C is 37.9%.

Question: What about the viability, T/C [22] of the same compound?
Answer: The viability, T/C was 46.5%.

Question: And the viability, T/C [23]?
Answer: The viability, T/C was 46.4%.

Question: And the viability, T/C [24]?
Answer: The viability, T/C was 44.5%.

Question: And the viability, T/C [25]?
Answer: Its viability, T/C is 5.76%.

Question: And the viability, T/C [26]?
Answer: The viability, T/C was 9.94%.

Question: And the viability, T/C [27]?
Answer: The viability, T/C was 5.5%.

Question: What about the viability, T/C [28] of the same compound?
Answer: The viability, T/C was 5.99%.

Question: And the viability, T/C [29]?
Answer: The viability, T/C was 5.05%.

Question: And the viability, T/C [30]?
Answer: The viability, T/C was 5.13%.

Question: What about the viability, T/C [31] of the same compound?
Answer: The viability, T/C was 5.86%.

Question: And the viability, T/C [32]?
Answer: The viability, T/C was 6.15%.

Question: What about the viability, T/C [33] of the same compound?
Answer: The viability, T/C was 6.62%.

Question: What about the viability, T/C [34] of the same compound?
Answer: Its viability, T/C is 4.48%.

Question: And the viability, T/C [35]?
Answer: Its viability, T/C is 5.63%.

Question: What about the viability, T/C [36] of the same compound?
Answer: The viability, T/C was 8.05%.

Question: What about the viability, T/C [37] of the same compound?
Answer: Its viability, T/C is 5.01%.

Question: What about the viability, T/C [38] of the same compound?
Answer: Its viability, T/C is 2.99%.

Question: And the viability, T/C [39]?
Answer: The viability, T/C was 2.11%.

Question: What about the viability, T/C [40] of the same compound?
Answer: Its viability, T/C is 1.75%.

Question: And the viability, T/C [41]?
Answer: Its viability, T/C is 1.53%.

Question: And the viability, T/C [42]?
Answer: Its viability, T/C is 1.67%.
